Source: ChEMBL document CHEMBL5537181 (J Med Chem, 2024)
Activity calls are given as the source filed them. No cut-off for these calls is given here. Where a SMILES comes first, the peptide text is derived from it. Bridges are numbered along the chain shown (N, C = ends).

target: Voltage-dependent N-type calcium channel subunit alpha-1B (Homo sapiens, UniProt Q00975); assay: Inhibition of human Cav2.2 channel transfected in HEK293T cells co-expressed with human GABAB receptor assessed as inhibition of Cav2.2-mediated Ba2+ current at 100 nM measured for 3 to 5 days by whole-cell patch clamp assay; format: cell-based; settings: time 3-5 day
Sequence (Q00975 whole entry, looked up): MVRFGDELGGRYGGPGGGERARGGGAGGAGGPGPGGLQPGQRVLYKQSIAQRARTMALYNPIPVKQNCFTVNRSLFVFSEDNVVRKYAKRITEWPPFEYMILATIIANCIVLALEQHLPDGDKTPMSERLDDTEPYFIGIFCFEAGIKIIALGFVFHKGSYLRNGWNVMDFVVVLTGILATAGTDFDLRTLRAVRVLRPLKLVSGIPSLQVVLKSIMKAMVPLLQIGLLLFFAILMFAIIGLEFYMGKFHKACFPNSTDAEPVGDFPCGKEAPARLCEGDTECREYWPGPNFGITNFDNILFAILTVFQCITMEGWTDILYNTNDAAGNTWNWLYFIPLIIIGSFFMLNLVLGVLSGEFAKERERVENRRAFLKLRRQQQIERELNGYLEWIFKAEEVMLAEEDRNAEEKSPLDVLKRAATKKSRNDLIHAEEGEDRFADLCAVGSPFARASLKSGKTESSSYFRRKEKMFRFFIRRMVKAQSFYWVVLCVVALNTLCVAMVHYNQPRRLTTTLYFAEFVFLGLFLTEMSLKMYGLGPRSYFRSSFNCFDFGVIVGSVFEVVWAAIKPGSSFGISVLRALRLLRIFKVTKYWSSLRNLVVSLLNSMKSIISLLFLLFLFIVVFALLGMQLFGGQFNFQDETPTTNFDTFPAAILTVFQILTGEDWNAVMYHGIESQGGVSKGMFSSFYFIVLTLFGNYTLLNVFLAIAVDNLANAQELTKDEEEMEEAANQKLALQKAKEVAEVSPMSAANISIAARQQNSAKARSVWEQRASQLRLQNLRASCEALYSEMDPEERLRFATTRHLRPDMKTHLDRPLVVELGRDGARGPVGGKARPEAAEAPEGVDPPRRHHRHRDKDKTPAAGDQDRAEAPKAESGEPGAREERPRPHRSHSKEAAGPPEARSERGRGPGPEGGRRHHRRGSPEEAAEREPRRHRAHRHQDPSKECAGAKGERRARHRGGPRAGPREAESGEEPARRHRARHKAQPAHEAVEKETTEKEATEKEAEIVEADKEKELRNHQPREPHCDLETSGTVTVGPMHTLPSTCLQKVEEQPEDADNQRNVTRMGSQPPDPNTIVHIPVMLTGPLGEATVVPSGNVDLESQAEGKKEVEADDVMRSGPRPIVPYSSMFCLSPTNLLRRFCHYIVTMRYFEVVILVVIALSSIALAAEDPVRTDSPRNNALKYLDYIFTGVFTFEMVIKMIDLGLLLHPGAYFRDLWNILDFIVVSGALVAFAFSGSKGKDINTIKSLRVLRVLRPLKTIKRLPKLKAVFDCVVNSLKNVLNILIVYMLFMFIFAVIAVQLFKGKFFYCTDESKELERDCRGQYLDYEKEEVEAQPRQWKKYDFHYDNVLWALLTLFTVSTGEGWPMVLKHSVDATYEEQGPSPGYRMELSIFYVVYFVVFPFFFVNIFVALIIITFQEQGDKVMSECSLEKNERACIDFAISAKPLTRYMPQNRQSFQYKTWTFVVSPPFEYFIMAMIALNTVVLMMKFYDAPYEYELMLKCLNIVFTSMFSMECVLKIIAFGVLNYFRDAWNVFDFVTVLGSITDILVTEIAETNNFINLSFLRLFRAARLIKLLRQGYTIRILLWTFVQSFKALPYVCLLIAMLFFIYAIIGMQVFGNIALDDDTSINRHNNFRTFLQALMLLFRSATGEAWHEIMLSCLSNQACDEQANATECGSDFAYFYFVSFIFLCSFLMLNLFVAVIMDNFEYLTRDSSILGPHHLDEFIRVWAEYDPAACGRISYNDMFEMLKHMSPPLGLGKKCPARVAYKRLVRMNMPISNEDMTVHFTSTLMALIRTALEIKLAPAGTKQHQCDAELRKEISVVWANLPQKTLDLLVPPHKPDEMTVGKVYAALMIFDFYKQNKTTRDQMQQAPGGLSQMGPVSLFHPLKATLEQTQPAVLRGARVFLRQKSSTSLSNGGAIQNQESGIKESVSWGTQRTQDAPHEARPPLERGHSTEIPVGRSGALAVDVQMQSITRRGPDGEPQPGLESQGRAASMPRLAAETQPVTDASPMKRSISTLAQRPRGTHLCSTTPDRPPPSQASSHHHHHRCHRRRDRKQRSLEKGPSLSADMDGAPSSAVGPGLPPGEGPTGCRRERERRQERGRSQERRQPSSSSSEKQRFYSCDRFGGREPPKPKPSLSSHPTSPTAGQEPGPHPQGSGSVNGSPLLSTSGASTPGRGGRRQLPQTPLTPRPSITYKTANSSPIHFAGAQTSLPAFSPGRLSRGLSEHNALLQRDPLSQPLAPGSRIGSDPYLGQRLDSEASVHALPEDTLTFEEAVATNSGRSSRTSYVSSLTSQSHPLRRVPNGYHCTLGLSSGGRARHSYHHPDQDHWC

Compound	inhibition [%]
H-GRYRSPYDRRRRYRRATD-NH2	80
H-GRYRSPYDRRRAYRRITD-NH2	10
H-GRYRSPYDARRRYRRITD-NH2	50
H-GRYRSPYDRRRRYRRITA-NH2	10
H-GRYRSPYARRRRYRRITD-NH2	50
H-GRYRSPYDRRRRYARITD-NH2	10
H-GRYRSPADRRRRYRRITD-NH2	60
H-GRARSPYDRRRRYRRITD-NH2	10

target: Neuronal acetylcholine receptor; alpha9/alpha10 (Homo sapiens) (UniProt Q9UGM1+Q9GZZ6); assay: Antagonist activity at human wild type alpha9alpha10 nAChR expressed in acetylcholine-induced Xenopus laevis oocytes assessed as inhibition of acetylcholine-induced current at 30 nM by two electrode voltage-clamp assay relative to control; format: cell-based; settings: Oocyte

Compound	inhibition
H-GRYRSPYDRRRRYRRATD-NH2	20%
H-GRYRSRYDRRRRYRRITD-NH2	10%
H-GRYRSPYDRRRRYRDDTD-NH2	0%
H-GRYRSPYDRRRRRRRITD-NH2	inactive
H-GRYRSPYDRRRRYDRITD-NH2	0%
CC[C@H](C)[C@H](NC(=O)[C@H](CCCNC(=N)N)NC(=O)[C@H](CCCNC(=N)N)NC(=O)[C@@H]1CSSC[C@H](N)C(=O)N[C@@H](CCCNC(=N)N)C(=O)N[C@@H](CO)C(=O)N2CCC[C@H]2C(=O)N[C@@H](Cc2ccc(O)cc2)C(=O)N[C@@H](CC(=O)O)C(=O)N[C@@H](CCCNC(=N)N)C(=O)N[C@@H](CCCNC(=N)N)C(=O)N[C@@H](CCCNC(=N)N)C(=O)N[C@@H](CCCNC(=N)N)C(=O)N[C@@H](Cc2ccc(O)cc2)C(=O)N1)C(=O)N[C@H](C(=O)N[C@@H](CC(=O)O)C(N)=O)[C@@H](C)O (H-CRSPYDRRRRYCRRITD-NH2; disulfide 1-12)	25%
H-GRYRSPYDARRRYRRITD-NH2	20%
CC[C@H](C)[C@H](NC(=O)[C@H](CCCNC(=N)N)NC(=O)[C@H](CCCNC(=N)N)NC(=O)[C@@H]1CSSC[C@H](NC(=O)[C@H](Cc2ccc(O)cc2)NC(=O)[C@H](CCCNC(=N)N)NC(=O)CN)C(=O)N[C@@H](CCCNC(=N)N)C(=O)N[C@@H](CO)C(=O)N2CCC[C@H]2C(=O)N[C@@H](Cc2ccc(O)cc2)C(=O)N[C@@H](CC(=O)O)C(=O)N[C@@H](CCCNC(=N)N)C(=O)N[C@@H](CCCNC(=N)N)C(=O)N[C@@H](CCCNC(=N)N)C(=O)N[C@@H](CCCNC(=N)N)C(=O)N[C@@H](Cc2ccc(O)cc2)C(=O)N1)C(=O)N[C@H](C(=O)N[C@@H](CC(=O)O)C(N)=O)[C@@H](C)O (H-GRYCRSPYDRRRRYCRRITD-NH2; disulfide 4-15)	25%
H-GRYRSPYDRDRRYRRITD-NH2	0%
CC[C@H](C)[C@@H]1NC(=O)[C@H](CCCNC(=N)N)NC(=O)[C@H](CCCNC(=N)N)NC(=O)[C@@H]2CSSC[C@H](NC(=O)[C@H](Cc3ccc(O)cc3)NC(=O)[C@H](CCCNC(=N)N)NC(=O)CNC(=O)[C@H](CC(=O)O)NC(=O)[C@H]([C@@H](C)O)NC1=O)C(=O)N[C@@H](CCCNC(=N)N)C(=O)N[C@@H](CO)C(=O)N1CCC[C@H]1C(=O)N[C@@H](Cc1ccc(O)cc1)C(=O)N[C@@H](CC(=O)O)C(=O)N[C@@H](CCCNC(=N)N)C(=O)N[C@@H](CCCNC(=N)N)C(=O)N[C@@H](CCCNC(=N)N)C(=O)N[C@@H](CCCNC(=N)N)C(=O)N[C@@H](Cc1ccc(O)cc1)C(=O)N2 (cyclo(CRRITDGRYCRSPYDRRRRY); disulfide 1-10)	25%
CC[C@H](C)[C@H](NC(=O)[C@H](CCCNC(=N)N)NC(=O)[C@H](CCCNC(=N)N)NC(=O)[C@@H]1CSSC[C@H](NC(=O)[C@@H](N)Cc2ccc(O)cc2)C(=O)N[C@@H](CCCNC(=N)N)C(=O)N[C@@H](CO)C(=O)N2CCC[C@H]2C(=O)N[C@@H](Cc2ccc(O)cc2)C(=O)N[C@@H](CC(=O)O)C(=O)N[C@@H](CCCNC(=N)N)C(=O)N[C@@H](CCCNC(=N)N)C(=O)N[C@@H](CCCNC(=N)N)C(=O)N[C@@H](CCCNC(=N)N)C(=O)N[C@@H](Cc2ccc(O)cc2)C(=O)N1)C(=O)N[C@H](C(=O)N[C@@H](CC(=O)O)C(N)=O)[C@@H](C)O (H-YCRSPYDRRRRYCRRITD-NH2; disulfide 2-13)	25%
H-GDYRSPYDRRRRYRRITD-NH2	0%
H-GRYRSPYDRARRYRRITD-NH2	20%
H-RRYRSPYDRRRRYRRITD-NH2	10%
CC[C@H](C)[C@H](NC(=O)[C@H](CCCNC(=N)N)NC(=O)[C@H](CCCNC(=N)N)NC(=O)[C@@H]1CSSC[C@H](NC(=O)[C@H](Cc2ccc(O)cc2)NC(=O)[C@@H](N)CCCNC(=N)N)C(=O)N[C@@H](CCCNC(=N)N)C(=O)N[C@@H](CO)C(=O)N2CCC[C@H]2C(=O)N[C@@H](Cc2ccc(O)cc2)C(=O)N[C@@H](CC(=O)O)C(=O)N[C@@H](CCCNC(=N)N)C(=O)N[C@@H](CCCNC(=N)N)C(=O)N[C@@H](CCCNC(=N)N)C(=O)N[C@@H](CCCNC(=N)N)C(=O)N[C@@H](Cc2ccc(O)cc2)C(=O)N1)C(=O)N[C@H](C(=O)N[C@@H](CC(=O)O)C(N)=O)[C@@H](C)O (H-RYCRSPYDRRRRYCRRITD-NH2; disulfide 3-14)	25%
H-GRYRSPYDRRRRYRRITA-NH2	20%
H-GRYRSPYDRRRRYRDIDD-NH2	0%
H-GRYRSPYDDRRRYRRITD-NH2	0%
H-DRYRSPYDRRRRYRRITD-NH2	0%
H-GAYRSPYDRRRRYRRITD-NH2	20%
H-GRYRSPYARRRRYRRITD-NH2	20%
H-GRYRSPYDRRDRYRRITD-NH2	0%

Compound	inhibition
H-GRYRSPYDRRRDYRRITD-NH2	0%
CC[C@@H](C)[C@@H](NC(=O)[C@@H](CCCNC(=N)N)NC(=O)[C@@H](CCCNC(=N)N)NC(=O)[C@@H](Cc1ccc(O)cc1)NC(=O)[C@@H](CCCNC(=N)N)NC(=O)[C@@H](CCCNC(=N)N)NC(=O)[C@@H](CCCNC(=N)N)NC(=O)[C@@H](CCCNC(=N)N)NC(=O)[C@@H](CC(=O)O)NC(=O)[C@@H](Cc1ccc(O)cc1)NC(=O)[C@H]1CCCN1C(=O)[C@@H](CO)NC(=O)[C@@H](CCCNC(=N)N)NC(=O)[C@@H](Cc1ccc(O)cc1)NC(=O)[C@@H](CCCNC(=N)N)NC(=O)CN)C(=O)N[C@@H](C(=O)N[C@H](CC(=O)O)C(N)=O)[C@H](C)O	25%
H-GRYRSPYDRRRRYRRIAD-NH2	20%
H-GRYRSDYDRRRRYRRITD-NH2	0%
H-GRYRSPYDRRRRYRDITD-NH2	0%
H-GRYRSPYDRRRRYRAITD-NH2	20%
H-ARYRSPYDRRRRYRRITD-NH2	20%
H-GRYRSPADRRRRYRRITD-NH2	20%
H-GRYRSPRDRRRRYRRITD-NH2	10%
H-GRYRDPYDRRRRYRRITD-NH2	0%
H-GRYASPYDRRRRYRRITD-NH2	20%
H-GRYRSPYDRRRRYRRIRD-NH2	10%
H-GRYRSPYDRRRRYRRITR-NH2	inactive
H-GRYAAPYDRRRRYRRITD-NH2	20%
H-GRYRSAYDRRRRYRRITD-NH2	20%
H-GRARSPYDRRRRYRRITD-NH2	20%
H-GRRRSPYDRRRRYRRITD-NH2	10%
H-GRYRSPYRRRRRYRRITD-NH2	10%
H-GRYRSPYDRRRRDRRITD-NH2	0%
H-GRYDSPYDRRRRYRRITD-NH2	0%
N=C(N)NCCC[C@@H]1NC(=O)[C@H](CCCNC(=N)N)NC(=O)[C@H](CCCNC(=N)N)NC(=O)[C@H](CCCNC(=N)N)NC(=O)[C@H](CC(=O)O)NC(=O)[C@H](Cc2ccc(O)cc2)NC(=O)[C@@H]2CCCN2C(=O)[C@H](CO)NC(=O)[C@H](CCCNC(=N)N)NC(=O)[C@@H](N)CSSC[C@@H](C(N)=O)NC(=O)[C@H](Cc2ccc(O)cc2)NC1=O (H-CRSPYDRRRRYC-NH2; disulfide 1-12)	25%

same assay, conditions: Oocyte, filed as antagonist

Compound	inhibition
H-GRDRSPYDRRRRYRRITD-NH2	Active
H-GRYRSPYDRRARYRRITD-NH2	Active
H-GRYRSPYDRRRAYRRITD-NH2	Active
H-GRYRRPYDRRRRYRRITD-NH2	> 80%
H-GRYRSPDDRRRRYRRITD-NH2	Active
H-GRYRSPYDRRRRARRITD-NH2	Active
H-GRYRSPYDRRRRYRRRTD-NH2	> 80%
H-GRYRSPYDRRRRYARITD-NH2	Active
